In general, IC50 refers to the point on the concentration scale where inhibition reaches its midpoint. For orientation: inhibition means how much of the control response was suppressed. A high value points to a response far below the control.

This assay deals with T1, human CXCR4 receptor (Homo sapiens, UniProt P61073).
T1 construct: expressed in transfected cells
Nature of the assay: Measurement of intracellular Ca+2 responses (FLIPR), antagonism of the SDF-1α response. To be noted: HEK-Gqi5 cells stably expressing human CXCR4; for IC50: antagonism of SDF-1α at 1.9 nM (EC65), Fluo-4 calcium, FLIPR; for inhibition: percent antagonism of SDF-1α at 1.9 nM (EC65), test drug 2.44 nM to 40,000 nM. It is filed as cell-based. The method, then:
Measurement of Intracellular Ca^+2 Responses for CXCR4 Compounds
HEK-Gqi5 cells stably expressing the human CXCR4 receptor were utilized for these studies. The growth media for the CXCR4 receptor expressing cell line was DMEM high glucose medium supplemented with 10% fetal bovine serum (FBS), 1% antibiotic-antimycotic, 50 ug/ml hygromycin B, and 400 μg/ml geneticin. Ten thousand cells per well were plated into 384-well poly-D-lysine coated plates one day prior to use. On the day of the experiment, the cells were washed twice with Hank's Balanced Salt Solution supplemented with 20 mM hepes (HBSS/hepes buffer). The cells were then dye loaded with 2 uM Fluo-4 diluted in the HBSS/Hepes buffer and incubated at 37° C. for 40 minutes. Extracellular dye was removed by washing the cell plates four times prior to placing the plates in the FLIPR (Fluorometric Imaging Plate Reader, Molecular Devices). Ligands were diluted in HBSS/Hepes buffer and prepared in 384-well microplates. The positive control, stromal-cell derived factor-1 (SDF-1α), was diluted in HBSS/Hepes buffer with 4 mg/ml fatty acid free bovine serum albumin. Two drug additions were made by the FLIPR. The first drug addition was the test drug in concentrations ranging from 2.44 nM to 40,000 nM. After this addition, fluorescent measurements were taken. Any calcium release in response to this drug addition represents agonist activity of the compounds. The second drug addition was SDF-1α at a final concentration of 1.9 nM (EC65). Fluorescence measurements were also taken after this second drug addition and were used to determine the ability of the test compounds to antagonize the SDF-1α response. Results were expressed as EC50 and efficacy values, as well as IC50 and percent antagonism values. As controls, SDF-1α (CXCR4 agonist) and AMD3100 (CXCR4 antagonist) dose-response curves were also determined in each study.

T1 sequence (P61073 whole entry): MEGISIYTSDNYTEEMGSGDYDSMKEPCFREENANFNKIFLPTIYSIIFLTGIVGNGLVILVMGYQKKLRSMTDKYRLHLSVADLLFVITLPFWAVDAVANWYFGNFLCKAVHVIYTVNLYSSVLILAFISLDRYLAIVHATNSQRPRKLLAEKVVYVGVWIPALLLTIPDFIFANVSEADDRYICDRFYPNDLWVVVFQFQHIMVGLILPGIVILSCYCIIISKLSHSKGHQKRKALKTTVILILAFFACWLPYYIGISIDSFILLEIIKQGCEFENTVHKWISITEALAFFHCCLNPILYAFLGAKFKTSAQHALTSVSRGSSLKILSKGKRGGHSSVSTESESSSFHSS

Turning to `CN(C)CCNc1nc(NC2CCN(Cc3c(OCCN(C)C)cccc3N(C)C)CC2)c2sccc2n1` [Compound 2], the IC50 turned out to be 110 nM and the inhibition stood at 95%.

As for `COc1cccc(N(C)C)c1CN1CCC(Nc2nc(NCCN(C)C)nc3c2CCC3)CC1` [Compound 1, N^2-[2-(Dimethylamino)ethyl]-N^4-{1-[2-(dimethylamino)-6-methoxybenzyl]piperidin-4-yl}-6,7-dihydro-5H-cyclopenta[d]pyrimidine-2,4-diamine], the IC50 came to 2920 nM and the inhibition was determined as 93%.
